# According to the supplement of paper PMC10307832:
# Columns and labels:
# Test in all cases: relative viability (nuclei count vs DMSO), 5 days (fraction); higher = more cells survive
# NCI-H647 = tested on: NCI-H647
# Outline: (§1)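 The day after seeding in 1536-well plates, lung cancer cell lines were treated by pin tool with a single drug, or with a fixed anchor-drug dose together with five library-drug doses (not always all listed) in √10 steps. After 5 days, a combined fix-and-stain solution (final 0.05% Triton X-100, 1% formaldehyde, 1 ug/ml Hoechst) was added. Nuclei counted on 4× images gave relative viability as treated counts over vehicle counts, reported as the median of duplicate plates.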
# LOU-NH91 = tested on: LOU-NH91
# Outline: as §1
# HOP-62 = tested on: HOP-62
# Outline: as §1
# NCI-H2087 = tested on: NCI-H2087
# Outline: as §1
# NCI-H1395 = tested on: NCI-H1395
# Outline: as §1
# COR-L 105 = tested on: COR-L 105
# Outline: as §1
# HCC-827 = tested on: HCC-827
# Outline: as §1
# NCI-H2342 = tested on: NCI-H2342
# Outline: as §1
# SW 1573 = tested on: SW 1573
# Outline: as §1
# EPLC-272H = tested on: EPLC-272H
# Outline: as §1
# LCLC-97TM1 = tested on: LCLC-97TM1
# Outline: as §1
# 201T = tested on: 201T
# Outline: as §1
compound,measurement,setting,value
C=C1C(=O)O[C@@H](CCCCCCCC)[C@@H]1C(=O)O [C-75] + N=C(N)NC(=N)NCCc1ccccc1 [Phenformin] (partner 250 µM),relative viability,NCI-H647; first compound 2.53 µM,0.374
same,relative viability,NCI-H647; first compound 8 µM,0.382
same,relative viability,LOU-NH91; first compound 0.08 µM,0.715
same,relative viability,LOU-NH91; first compound 0.253 µM,0.741
same,relative viability,LOU-NH91; first compound 0.8 µM,0.612
same,relative viability,LOU-NH91; first compound 2.53 µM,0.532
same,relative viability,LOU-NH91; first compound 8 µM,0.749
same,relative viability,HOP-62; first compound 0.08 µM,0.691
same,relative viability,HOP-62; first compound 0.253 µM,0.718
same,relative viability,HOP-62; first compound 0.8 µM,0.647
same,relative viability,HOP-62; first compound 2.53 µM,0.616
same,relative viability,HOP-62; first compound 8 µM,0.601
same,relative viability,NCI-H2087; first compound 0.08 µM,0.409
same,relative viability,NCI-H2087; first compound 0.253 µM,0.597
same,relative viability,NCI-H2087; first compound 0.8 µM,0.428
same,relative viability,NCI-H2087; first compound 2.53 µM,0.279
same,relative viability,NCI-H2087; first compound 8 µM,0.48
same,relative viability,NCI-H1395; first compound 0.08 µM,0.452
same,relative viability,NCI-H1395; first compound 0.253 µM,0.454
same,relative viability,NCI-H1395; first compound 0.8 µM,0.435
same,relative viability,NCI-H1395; first compound 2.53 µM,0.45
same,relative viability,NCI-H1395; first compound 8 µM,0.514
same,relative viability,COR-L 105; first compound 0.08 µM,0.507
same,relative viability,COR-L 105; first compound 0.253 µM,0.485
same,relative viability,COR-L 105; first compound 0.8 µM,0.547
same,relative viability,COR-L 105; first compound 2.53 µM,0.436
same,relative viability,COR-L 105; first compound 8 µM,0.436
same,relative viability,HCC-827; first compound 0.08 µM,0.428
same,relative viability,HCC-827; first compound 0.253 µM,0.391
same,relative viability,HCC-827; first compound 0.8 µM,0.38
same,relative viability,HCC-827; first compound 2.53 µM,0.36
same,relative viability,HCC-827; first compound 8 µM,0.42
same,relative viability,NCI-H2342; first compound 0.08 µM,0.542
same,relative viability,NCI-H2342; first compound 0.253 µM,0.634
same,relative viability,NCI-H2342; first compound 0.8 µM,0.664
same,relative viability,NCI-H2342; first compound 2.53 µM,0.512
same,relative viability,NCI-H2342; first compound 8 µM,0.524
same,relative viability,SW 1573; first compound 0.08 µM,0.462
same,relative viability,SW 1573; first compound 0.253 µM,0.351
same,relative viability,SW 1573; first compound 0.8 µM,0.376
same,relative viability,SW 1573; first compound 2.53 µM,0.381
same,relative viability,SW 1573; first compound 8 µM,0.244
same,relative viability,EPLC-272H; first compound 0.08 µM,0.33
same,relative viability,EPLC-272H; first compound 0.253 µM,0.281
same,relative viability,EPLC-272H; first compound 0.8 µM,0.276
same,relative viability,EPLC-272H; first compound 2.53 µM,0.28
same,relative viability,EPLC-272H; first compound 8 µM,0.271
same,relative viability,LCLC-97TM1; first compound 0.08 µM,0.421
same,relative viability,LCLC-97TM1; first compound 0.253 µM,0.487
same,relative viability,LCLC-97TM1; first compound 0.8 µM,0.355
same,relative viability,LCLC-97TM1; first compound 2.53 µM,0.372
same,relative viability,LCLC-97TM1; first compound 8 µM,0.431
same,relative viability,201T; first compound 0.08 µM,0.42
same,relative viability,201T; first compound 0.253 µM,0.484
same,relative viability,201T; first compound 0.8 µM,0.425
same,relative viability,201T; first compound 2.53 µM,0.43
same,relative viability,201T; first compound 8 µM,0.459
